Assay results from ChEMBL document CHEMBL1141928, “Non-peptidic alpha(v)beta3 antagonists containing indol-1-yl propionic acids” (Bioorg Med Chem Lett, 2005).

Legend:
Integrin alpha-V/beta-3 = Integrin alpha-V/beta-3 (Homo sapiens, UniProt P05106+P06756); assay: Inhibitory concentration against alphaV-beta3 integrin; format: protein-complex assay
[1] = Clearance in mice after intravenous dosage; format: ADME, organism-based; conditions: mouse, in vivo
[2] = Half life in mice after intravenous dosage; format: ADME, organism-based; conditions: mouse, in vivo
[3] = Bioavailability in mice after […] dosage; format: ADME, organism-based; conditions: mouse, in vivo

Chain of Integrin alpha-V/beta-3 (P05106 27-788 limits assumed): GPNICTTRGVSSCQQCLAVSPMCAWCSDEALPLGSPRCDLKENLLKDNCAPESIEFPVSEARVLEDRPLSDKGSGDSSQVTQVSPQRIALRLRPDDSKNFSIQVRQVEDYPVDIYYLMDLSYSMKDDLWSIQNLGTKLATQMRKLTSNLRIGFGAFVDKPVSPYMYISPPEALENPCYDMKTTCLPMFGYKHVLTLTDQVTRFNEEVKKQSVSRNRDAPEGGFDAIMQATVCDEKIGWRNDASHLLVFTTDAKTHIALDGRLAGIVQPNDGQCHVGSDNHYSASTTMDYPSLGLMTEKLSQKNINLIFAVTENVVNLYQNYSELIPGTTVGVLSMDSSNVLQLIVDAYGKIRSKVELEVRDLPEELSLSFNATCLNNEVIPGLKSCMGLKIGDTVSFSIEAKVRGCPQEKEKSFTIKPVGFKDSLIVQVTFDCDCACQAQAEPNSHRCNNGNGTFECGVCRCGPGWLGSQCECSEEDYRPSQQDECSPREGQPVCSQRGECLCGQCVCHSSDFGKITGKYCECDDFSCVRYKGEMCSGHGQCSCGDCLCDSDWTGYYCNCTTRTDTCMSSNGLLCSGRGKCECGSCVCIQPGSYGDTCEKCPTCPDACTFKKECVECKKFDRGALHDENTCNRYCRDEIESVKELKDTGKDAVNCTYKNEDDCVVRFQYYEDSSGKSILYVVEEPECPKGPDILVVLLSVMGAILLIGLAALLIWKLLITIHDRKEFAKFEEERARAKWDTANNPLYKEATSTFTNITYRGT
Chain of Integrin alpha-V/beta-3 (P06756 31-889 limits assumed): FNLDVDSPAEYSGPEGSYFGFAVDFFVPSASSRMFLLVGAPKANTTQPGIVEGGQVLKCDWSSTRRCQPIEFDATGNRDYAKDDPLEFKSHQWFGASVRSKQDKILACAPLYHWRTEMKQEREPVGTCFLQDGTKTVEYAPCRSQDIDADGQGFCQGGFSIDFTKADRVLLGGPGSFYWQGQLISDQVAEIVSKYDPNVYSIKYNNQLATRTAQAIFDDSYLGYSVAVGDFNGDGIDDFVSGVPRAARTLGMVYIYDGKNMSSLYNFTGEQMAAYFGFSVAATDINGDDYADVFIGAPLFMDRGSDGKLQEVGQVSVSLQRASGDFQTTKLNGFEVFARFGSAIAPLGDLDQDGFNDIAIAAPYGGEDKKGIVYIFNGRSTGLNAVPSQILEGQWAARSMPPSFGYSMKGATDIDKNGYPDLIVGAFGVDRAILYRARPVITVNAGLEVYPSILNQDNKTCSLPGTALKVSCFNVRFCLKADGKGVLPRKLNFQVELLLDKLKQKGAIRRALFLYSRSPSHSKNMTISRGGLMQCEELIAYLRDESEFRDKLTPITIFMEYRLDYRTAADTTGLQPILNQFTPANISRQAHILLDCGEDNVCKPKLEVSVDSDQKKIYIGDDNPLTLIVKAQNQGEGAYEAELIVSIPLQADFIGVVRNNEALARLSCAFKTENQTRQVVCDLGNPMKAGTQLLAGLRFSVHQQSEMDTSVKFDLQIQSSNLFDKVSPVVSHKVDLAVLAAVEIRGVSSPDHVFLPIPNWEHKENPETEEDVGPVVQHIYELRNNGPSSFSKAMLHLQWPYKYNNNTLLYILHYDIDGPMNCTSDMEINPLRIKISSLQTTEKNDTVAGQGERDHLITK
Chain of Integrin alpha-V/beta-3 (P06756 891-1048 limits assumed): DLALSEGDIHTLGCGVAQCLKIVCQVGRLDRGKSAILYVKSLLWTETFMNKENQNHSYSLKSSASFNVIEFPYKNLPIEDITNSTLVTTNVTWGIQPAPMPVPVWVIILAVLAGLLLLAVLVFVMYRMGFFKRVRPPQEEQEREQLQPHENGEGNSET

| Structure (SMILES) | IC50 (Integrin alpha-V/beta-3) | also measured |
| --- | --- | --- |
| COc1ccc(C(CC(=O)O)n2ccc3cc(OCCc4ccc5c(n4)NCCC5)ccc32)cc1 (centres undefined) | 0.7 nM |  |
| COc1cncc(C(CC(=O)O)n2ccc3cc(OCCc4ccc5c(n4)NCCC5)ccc32)c1 (centres undefined) | 0.25 nM |  |
| O=C(O)CC(c1ccccc1)n1ccc2cc(OCCONC3=NCCN3)ccc21 (centres undefined) | 200 nM |  |
| O=C(O)CC(c1ccccc1)n1ccc2cc(OCCc3ccc4c(n3)NCCC4)ccc21 (centres undefined) | 1 nM |  |
| CS(=O)(=O)c1cncc(C(CC(=O)O)n2ccc3cc(OCCc4ccc5c(n4)NCCC5)ccc32)c1 (centres undefined) | 0.46 nM |  |
| O=C(O)CC(c1cccc2ccccc12)n1ccc2cc(OCCc3ccc4c(n3)NCCC4)ccc21 (centres undefined) | 37 nM |  |
| O=C(O)CC(c1ccc(-c2ccccc2)cc1)n1ccc2cc(OCCc3ccc4c(n3)NCCC4)ccc21 (centres undefined) | 40 nM |  |
| CCCC(CC(=O)O)n1ccc2cc(CCCc3ccc4c(n3)NCCC4)ccc21 (centres undefined) | 23 nM |  |
| O=C(O)CC(c1ccncc1)n1ccc2cc(OCCc3ccc4c(n3)NCCC4)ccc21 (centres undefined) | 0.9 nM |  |
| O=C(O)CC(c1ccc(F)cc1)n1ccc2cc(OCCc3ccc4c(n3)NCCC4)ccc21 (centres undefined) | 0.7 nM |  |
| O=C(O)CC(c1ccccn1)n1ccc2cc(OCCc3ccc4c(n3)NCCC4)ccc21 (centres undefined) | 1.2 nM |  |
| O=C(O)CC(c1cccc(Cl)c1)n1ccc2cc(OCCc3ccc4c(n3)NCCC4)ccc21 (centres undefined) | 0.5 nM |  |
| N#Cc1cncc(C(CC(=O)O)n2ccc3cc(OCCc4ccc5c(n4)NCCC5)ccc32)c1 (centres undefined) | 0.26 nM |  |
| O=C(O)c1ccc(-n2ccc3cc(OCCCNc4ccccn4)ccc32)cc1 | > 20000 nM |  |
| COc1cccc(C(CC(=O)O)n2ccc3cc(OCCc4ccc5c(n4)NCCC5)ccc32)c1 (centres undefined) | 0.8 nM |  |
| O=C(O)CC(c1ccc2c(c1)OCO2)n1ccc2cc(OCCc3ccc4c(n3)NCCO4)ccc21 (centres undefined) | 8 nM |  |
| CS(=O)(=O)c1ccc(C(CC(=O)O)n2ccc3cc(OCCc4ccc5c(n4)NCCC5)ccc32)cn1 (centres undefined) | 0.3 nM |  |

More lines, main results first:

| IC50 (Integrin alpha-V/beta-3) | Structure (SMILES) | also measured |
| --- | --- | --- |
| 460 nM | CC(Cn1ccc2cc(OCCCNc3ccccn3)ccc21)C(=O)O (centres undefined) |  |
| 0.25 nM | O=C(O)CC(c1cccnc1)n1ccc2cc(OCCc3ccc4c(n3)NCCC4)ccc21 (centres undefined) |  |
| 36 nM | CNc1cccc(CCOc2ccc3c(ccn3CCC(=O)O)c2)n1 |  |
| 37 nM | O=C(O)CC(c1ccc2ccccc2c1)n1ccc2cc(OCCc3ccc4c(n3)NCCC4)ccc21 (centres undefined) |  |
| 0.38 nM | O=C(O)CC(c1ccc2c(c1)OCO2)n1ccc2cc(OCCc3ccc4c(n3)NCCC4)ccc21 (centres undefined) | clearance [1]: 13 mL/min/kg; half-life [2]: 1.5 h; bioavailability [3]: 73% |
| > 20000 nM | O=C(O)c1ccccc1-n1ccc2cc(OCCCNc3ccccn3)ccc21 |  |
| 130 nM | O=C(O)CC(c1cccnc1)n1ccc2cc(OCC(F)(F)c3ccc4c(n3)NCCC4)ccc21 (centres undefined) |  |
| 5 nM | CCCC(CC(=O)O)n1ccc2cc(OCCc3ccc4c(n3)NCCC4)ccc21 (centres undefined) |  |
| 0.38 nM | O=C(O)CC(c1cnc2ccccc2c1)n1ccc2cc(OCCc3ccc4c(n3)NCCC4)ccc21 (centres undefined) |  |
| 78 nM | CCCC(CC(=O)O)n1ccc2cc(NC(=O)Cc3ccc4c(n3)NCCC4)ccc21 (centres undefined) |  |
| 2000 nM | CCCC(Cn1ccc2cc(OCCCNc3ccccn3)ccc21)C(=O)O (centres undefined) |  |
| 1.1 nM | COc1ccccc1C(CC(=O)O)n1ccc2cc(OCCc3ccc4c(n3)NCCC4)ccc21 (centres undefined) |  |
| 1900 nM | O=C(O)C(Cc1ccccc1)Cn1ccc2cc(OCCCNc3ccccn3)ccc21 (centres undefined) |  |
| 55 nM | O=C(O)CC(c1ccccc1Cl)n1ccc2cc(OCCc3ccc4c(n3)NCCC4)ccc21 (centres undefined) |  |
